ChEMBL document CHEMBL3885881, “DrugMatrix”

Organism: Rattus norvegicus
Assay: DrugMatrix - Regimen: Daily Repeat
Assay type: toxicity, organism-based, Sprague-Dawley
Design: regimen Daily Repeat, gender Male, age 6-8 weeks
Conditions: in vivo, po, 740 mg/kg, route oral GAVAGE, dose level High, vehicle .5 % CMC; for ABSOLUTE BASOPHIL / ABSOLUTE EOSINOPHIL / ABSOLUTE LYMPHOCYTE / ABSOLUTE MONOCYTE / ABSOLUTE SEGMENTED NEUTROPHIL / BASOPHIL / EOSINOPHIL / ERYTHROCYTE COUNT / HEMATOCRIT / HEMOGLOBIN / LEUKOCYTE COUNT / LYMPHOCYTE / MEAN CORPUSCULAR HEMOGLOBIN / MEAN CORPUSCULAR HEMOGLOBIN CONCENTRATION / MEAN CORPUSCULAR VOLUME / MONOCYTE / NEUTROPHIL / NUCLEATED RED BLOOD CELLS / PLATELET COUNT: tissue Blood; for ALANINE AMINOTRANSFERASE / ALBUMIN / ALKALINE PHOSPHATASE / ASPARTATE AMINOTRANSFERASE / BLOOD UREA NITROGEN / CARBON DIOXIDE / CHLORIDE / CHOLESTEROL / CREATININE / GLUCOSE / LACTATE DEHYDROGENASE / LIPASE / PHOSPHORUS / POTASSIUM / SODIUM / TOTAL BILIRUBIN / TOTAL PROTEIN / URIC ACID: tissue Plasma

COc1ccccc1[N+](=O)[O-] [2-NITROANISOLE]
ABSOLUTE BASOPHIL (72 h, time 3 day): 0 CELLS/uL
ABSOLUTE EOSINOPHIL (72 h, time 3 day): 109.33 CELLS/uL
ABSOLUTE LYMPHOCYTE (72 h, time 3 day): 13522 CELLS/uL
ABSOLUTE MONOCYTE (72 h, time 3 day): 1089.33 CELLS/uL
ABSOLUTE SEGMENTED NEUTROPHIL (72 h, time 3 day): 2512.67 CELLS/uL
BASOPHIL (72 h, time 3 day): 0%
EOSINOPHIL (72 h, time 3 day): 0.67%
ERYTHROCYTE COUNT (72 h, time 3 day): 5.38 x10E6/uL
HEMATOCRIT (72 h, time 3 day): 32.17%
HEMOGLOBIN (72 h, time 3 day): 11.9 G/DL
LEUKOCYTE COUNT (72 h, time 3 day): 17.23 x10E3/uL
LYMPHOCYTE (72 h, time 3 day): 78.67%
MEAN CORPUSCULAR HEMOGLOBIN (72 h, time 3 day): 22.1 pg
MEAN CORPUSCULAR HEMOGLOBIN CONCENTRATION (72 h, time 3 day): 37 G/DL
MEAN CORPUSCULAR VOLUME (72 h, time 3 day): 59.83 fL
MONOCYTE (72 h, time 3 day): 6.33%
NEUTROPHIL (72 h, time 3 day): 14.33%
NUCLEATED RED BLOOD CELLS (72 h, time 3 day): 0 /100WBC
PLATELET COUNT (72 h, time 3 day): 1241.67 x10E3/uL
ALANINE AMINOTRANSFERASE (72 h, time 3 day): 84.67 u/L
ALBUMIN (72 h, time 3 day): 4.37 G/DL
ALKALINE PHOSPHATASE (72 h, time 3 day): 448.33 u/L
ASPARTATE AMINOTRANSFERASE (72 h, time 3 day): 103.67 u/L
BLOOD UREA NITROGEN (72 h, time 3 day): 14 mg/dL
CARBON DIOXIDE (72 h, time 3 day): 22.67 mmol/L
CHLORIDE (72 h, time 3 day): 101.67 MEQ/L
CHOLESTEROL (72 h, time 3 day): 95.67 mg/dL
CREATININE (72 h, time 3 day): 0.18 mg/dL
GLUCOSE (72 h, time 3 day): 145 mg/dL
LACTATE DEHYDROGENASE (72 h, time 3 day): 412.67 u/L
LIPASE (72 h, time 3 day): 9.33 u/L
PHOSPHORUS (72 h, time 3 day): 11.6 mg/dL
POTASSIUM (72 h, time 3 day): 6.07 MEQ/L
SODIUM (72 h, time 3 day): 142.23 MEQ/L
TOTAL BILIRUBIN (72 h, time 3 day): 0.23 mg/dL
TOTAL PROTEIN (72 h, time 3 day): 5.93 G/DL
URIC ACID (72 h, time 3 day): 1.7 mg/dL
ABSOLUTE BASOPHIL (120 h, time 5 day): 0 CELLS/uL
ABSOLUTE EOSINOPHIL (120 h, time 5 day): 0 CELLS/uL
ABSOLUTE LYMPHOCYTE (120 h, time 5 day): 12322.33 CELLS/uL
ABSOLUTE MONOCYTE (120 h, time 5 day): 57 CELLS/uL
ABSOLUTE SEGMENTED NEUTROPHIL (120 h, time 5 day): 3254 CELLS/uL
BASOPHIL (120 h, time 5 day): 0%
EOSINOPHIL (120 h, time 5 day): 0%
ERYTHROCYTE COUNT (120 h, time 5 day): 5.04 x10E6/uL
HEMATOCRIT (120 h, time 5 day): 30.5%
HEMOGLOBIN (120 h, time 5 day): 10.83 G/DL
LEUKOCYTE COUNT (120 h, time 5 day): 15.63 x10E3/uL
LYMPHOCYTE (120 h, time 5 day): 79%
MEAN CORPUSCULAR HEMOGLOBIN (120 h, time 5 day): 21.5 pg
MEAN CORPUSCULAR HEMOGLOBIN CONCENTRATION (120 h, time 5 day): 35.5 G/DL
MEAN CORPUSCULAR VOLUME (120 h, time 5 day): 60.6 fL
MONOCYTE (120 h, time 5 day): 0.33%
NEUTROPHIL (120 h, time 5 day): 20.67%
NUCLEATED RED BLOOD CELLS (120 h, time 5 day): 1 /100WBC
PLATELET COUNT (120 h, time 5 day): 1041 x10E3/uL
ALANINE AMINOTRANSFERASE (120 h, time 5 day): 76.67 u/L
ALBUMIN (120 h, time 5 day): 4.67 G/DL
ALKALINE PHOSPHATASE (120 h, time 5 day): 401.67 u/L
ASPARTATE AMINOTRANSFERASE (120 h, time 5 day): 101 u/L
BLOOD UREA NITROGEN (120 h, time 5 day): 14.33 mg/dL
CARBON DIOXIDE (120 h, time 5 day): 33 mmol/L
CHLORIDE (120 h, time 5 day): 98.33 MEQ/L
CHOLESTEROL (120 h, time 5 day): 92.33 mg/dL
CREATININE (120 h, time 5 day): 0.15 mg/dL
GLUCOSE (120 h, time 5 day): 127 mg/dL
LACTATE DEHYDROGENASE (120 h, time 5 day): 114.33 u/L
LIPASE (120 h, time 5 day): 9.67 u/L
PHOSPHORUS (120 h, time 5 day): 12.23 mg/dL
POTASSIUM (120 h, time 5 day): 6 MEQ/L
SODIUM (120 h, time 5 day): 144.43 MEQ/L
TOTAL BILIRUBIN (120 h, time 5 day): 0.23 mg/dL
TOTAL PROTEIN (120 h, time 5 day): 6.53 G/DL
URIC ACID (120 h, time 5 day): 0.9 mg/dL
ABSOLUTE BASOPHIL ([…], time 14 day): 0 CELLS/uL
ABSOLUTE EOSINOPHIL ([…], time 14 day): 157.6 CELLS/uL
ABSOLUTE LYMPHOCYTE ([…], time 14 day): 18755.2 CELLS/uL
ABSOLUTE MONOCYTE ([…], time 14 day): 504.8 CELLS/uL
ABSOLUTE SEGMENTED NEUTROPHIL ([…], time 14 day): 3782.4 CELLS/uL
BASOPHIL ([…], time 14 day): 0%
EOSINOPHIL ([…], time 14 day): 0.8%
ERYTHROCYTE COUNT ([…], time 14 day): 4.9 x10E6/uL
HEMATOCRIT ([…], time 14 day): 34.42%
HEMOGLOBIN ([…], time 14 day): 12.78 G/DL
LEUKOCYTE COUNT ([…], time 14 day): 23.2 x10E3/uL
LYMPHOCYTE ([…], time 14 day): 80.8%
MEAN CORPUSCULAR HEMOGLOBIN ([…], time 14 day): 26.14 pg
MEAN CORPUSCULAR HEMOGLOBIN CONCENTRATION ([…], time 14 day): 37.14 G/DL
MEAN CORPUSCULAR VOLUME ([…], time 14 day): 70.28 fL
MONOCYTE ([…], time 14 day): 2.2%
NEUTROPHIL ([…], time 14 day): 16.2%
NUCLEATED RED BLOOD CELLS ([…], time 14 day): 0 /100WBC
PLATELET COUNT ([…], time 14 day): 1231 x10E3/uL
ALANINE AMINOTRANSFERASE ([…], time 14 day): 73.4 u/L
ALBUMIN ([…], time 14 day): 4.84 G/DL
ALKALINE PHOSPHATASE ([…], time 14 day): 271.2 u/L
ASPARTATE AMINOTRANSFERASE ([…], time 14 day): 85.6 u/L
BLOOD UREA NITROGEN ([…], time 14 day): 17 mg/dL
CARBON DIOXIDE ([…], time 14 day): 31.6 mmol/L
CHLORIDE ([…], time 14 day): 99.2 MEQ/L
CHOLESTEROL ([…], time 14 day): 77 mg/dL
CREATININE ([…], time 14 day): 0.21 mg/dL
GLUCOSE ([…], time 14 day): 125 mg/dL
LACTATE DEHYDROGENASE ([…], time 14 day): 356.6 u/L
LIPASE ([…], time 14 day): 9 u/L
PHOSPHORUS ([…], time 14 day): 11.68 mg/dL
POTASSIUM ([…], time 14 day): 6.84 MEQ/L
SODIUM ([…], time 14 day): 142.78 MEQ/L
TOTAL BILIRUBIN ([…], time 14 day): 0.28 mg/dL
TOTAL PROTEIN ([…], time 14 day): 6.82 G/DL
URIC ACID ([…], time 14 day): 1.6 mg/dL
